Test results taken from patent US8680147B2, “Compositions” (DSM IP Assets B.V., priority 2006, dated 2014).

Legend:
Assay type in all cases: cell-based
[1] = system: human collagen 1; assay: Gene expression in human chondrocyte cells (SW1353), quantitative real-time PCR
Protocol: (§1) The cells were treated with IL-1β, which is one of the natural mediators that induce cartilage breakdown and is detected in substantial amounts in osteoarthritic cartilage tissues and cells derived thereof. Treatment of cells with IL-1β triggers the expression of genes that are involved in catabolic events, such as MMPs. Also, treatment of the cells with IL-1β reduces the collagen expression levels (compared to untreated cells)
(§2) Chondrocytes (SW1353; purchased from the […] [ATCC]) were grown in cell culture medium according to the instructions from ATCC. For experimental treatments, cells were seeded into 6-well plates and cultured for two days until they reached confluence. Total cellular RNA was extracted from cultured cells and reverse-transcribed as described by Richard et al. Mol. Nutr. Food Res. 49, 431-442, 2005. Expression levels of distinct genes were determined by quantitative real-time PCR as described in Richard et al. Mol. Nutr. Food Res. 49, 431-442, 2005.

[2] = system: Human MMP-1; assay: as above
Protocol: as §1, §2

[3] = system: Aggrecan; assay: as above
Protocol: as §1, §2

[4] = system: Human MMP-3; assay: as above
Protocol: as §1, §2

[5] = system: Human collagen II; assay: as above
Protocol: as §1, §2

[6] = system: Human MMP-13; assay: as above
Protocol: as §1, §2

[7] = system: psoriasin (S100 calcium-binding protein A7); assay: Gene expression in cytokine-stimulated keratinocytes, quantitative real time PCR; conditions: for Psoriasin gene expression (in % of stimulated cells): keratinocytes, cytokine mix 24 hrs
Protocol: (§3) Keratinocytes were cultured in standard medium (SFM, invitrogen #1 7005075) until they reached confluence. Culture medium was then changed to assay medium (SFM without epidermal growth factor and pituary extract) and pre-incubated with the test compound for 2 hrs. In order to stimulate the cells, a cytokine mix (see Boniface et al. J. Immunol. 178, 4615-4622, 2007) was added and the cells were cultured for 24 hrs. At the end of the experiment, cells were washed; total RNA was extracted using Trizol reagents (Sigma T9424). The expression levels of specific genes (cytokeratin 10, β-defensin (defensin-β4) and psoriasin (or S100 calcium-binding protein A7) was performed by quantitative real time PCR, using the procedure described in other examples.

[8] = system: β-defensin (defensin-β4); assay: as above; conditions: for β-defensin gene expression (in % of stimulated cells): keratinocytes, cytokine mix 24 hrs
Protocol: as §3

[9] = cytokine-stimulated keratinocytes

For COc1c(C(C)C)cc2c(c1O)[C@@]1(C(=O)O)CCCC(C)(C)[C@@H]1CC2 [Carnosic acid-12-methyl ether (I), (4aR,10aS)-carnosic acid 12-methyl ether], the “Effect on expression of human collagen 1 (in words)” value [1] was “stimulated the expression”, the “Effect on expression of MMP-1 (in words)” value [2] was “drastically reduced the expression” and the “Effect on expression of aggrecan (in words)” value [3] was “stimulated the expression”. The “Effect on expression of MMP-3 (in words)” value [4] was “drastically reduced the expression”, the “Effect on expression of human collagen 11 (in words)” value [5] was “stimulated the expression” and the “Effect on expression of MMP-13 (in words)” value [6] was “drastically reduced the expression”. For the same compound, the “Psoriasin gene expression (in % of stimulated cells)” value ([7]; 0.1 μmol/L) was 46 % of stimulated cells, the “Psoriasin gene expression (in % of stimulated cells)” value ([7]; 1.0 μmol/L) was 58 % of stimulated cells and the “Psoriasin gene expression (in % of stimulated cells)” value ([7]; 5.0 μmol/L) was 62 % of stimulated cells. The “Effect on psoriasin expression (in words)” value [7, 9] was “dose-dependently reduced the expression”, the “β-defensin gene expression (in % of stimulated cells)” value ([8]; 0.1 μmol/L) was 49 % of stimulated cells and the “β-defensin gene expression (in % of stimulated cells)” value ([8]; 1.0 μmol/L) was 47 % of stimulated cells. The “β-defensin gene expression (in % of stimulated cells)” value ([8]; 5.0 μmol/L) was 28 % of stimulated cells and the “Effect on β-defensin expression (in words)” value [8, 9] was “dose-dependently reduced the expression”.
